From EP0075141A1, “1,2,5-Oxadiazole-3,4-dicarboxylic-acid derivatives, process for their production, their use and pharmaceutical preparations containing them” (CASSELLA Aktiengesellschaft, priority 1981, dated 1983) come the findings set out here.

SMILES strings stand for the structures.

The subject of this test is Bastardhunden. In words: Haemodynamic study of antianginal and antihypertensive action in anaesthetised mongrel dogs. Type of test: in vivo. To be noted: dogs under pentobarbital or urethane-chloralose anaesthesia. The procedure:
Die Untersuchungen über die antianginöse und antihypertensive Wirkung der Verbindungen der Formel I wurden an Bastardhunden beiderlei Geschlechts in Pentobarbital-Narkose (30 bis 40 mg/ kg i.v.) oder in Urethan-Chloralose-Narkose (3 ml/kg Urethan-Chloralose-Gemisch i.v. = 20 mg/kg Chloralose und 250 mg/kg Urethan) durchgeführt. Die Beatmung der Tiere erfolgte mit einem Bird-Mark-7-Respirator. Der endexpiratorische Kohlensäuregehalt (gemessen mit einem Ultrarotabsorptionsschreiber) betrug zwischen 4,5 und 5 Vol.%. Während des gesamten Versuchs erhielten die Tiere mit Pentobarbital-Narkose eine Dauerinfusion von Pentobarbital i.v. = 4 mg(in 6 ml)/kg/h, um eine konstante Narkosetiefe zu gewährleisten; die Tiere mit Urethan-Chloralose-Narkose erhielten keine Dauerinfusion. Die Infusion wurde durch die Vena cephalica gegeben. Nach der Präparation des Versuchstieres wurde ca. 1 Stunde gewartet, bis sich alle haemodynamischen Parameter eingestellt hatten (steady state). Danach wurde mit dem eigentlichen Versuch begonnen.
Zur Bestimmung des mittleren Blutdrucks (=BDm) wurde der systolische und diastolische Blutdruck peripher in der Arteria femora1is über einen Statham-Druckaufnehmer gemessen. Ein über die Arteria carotis in den linken Ventrikel geschobener Millartip-Katheter lieferte das Signal für den linksventrikulären enddiastolischen Druck (=LVEDP) und die Herzfrequenz (=HF). Mit einem zweiten, über die Venajugularis eingeschobenen Tip-Katheter wurde der mittlere Blutdruck (=PAP) in der Arteria pulmonalis erfaßt.

As for `CCCNC(=O)c1nonc1C(=O)NCCC` [CH3CH2CH2NH- / CH3CH2CH2NH-, 1,2,5-Oxadiazol-3,4-bis-(carbonsäurepropylamid)], under “Dosis 1 mg/kg”, the “BDm Δ (mittlerer peripherer Blutdruck)” value was -35 mmHg, the “HF Δ (Herzfrequenz)” value stood at 0 b/min, the “LVEDP Δ (linksventrikulärer enddiastolischer Druck)” value (from here on “LVEDP Δ”) is listed as -0,5 mmHg and the “PAP Δ (mittlerer Pulmonalarteriendruck)” value is on record as “+1,1 mmHg”.
For the molecule `CNC(=O)c1nonc1C(=O)NC` [H2CNH- / H3CNH-, l,2,5-0xadiazol-3,4-bis-(carbonsäuremethylamid)], under “Dosis 0,5 mg/kg”, the “BDm Δ (mittlerer peripherer Blutdruck)” value is -35 mmHg, the “HF Δ (Herzfrequenz)” value is “+20 b/min”, the “LVEDP Δ” value was -3,5 mmHg and the “PAP Δ (mittlerer Pulmonalarteriendruck)” value is -3,0 mmHg.
Regarding `CCOC(=O)c1nonc1C(=O)NC(C)C` [H5C2O- / [drawing] (r5)], under “Dosis 3 mg/kg”, the “BDm Δ (mittlerer peripherer Blutdruck)” value is on record as -35 mmHg, the “LVEDP Δ” value is given as -2,5 mmHg and the “PAP Δ (mittlerer Pulmonalarteriendruck)” value was -2,0 mmHg.
With `CCOC(=O)c1nonc1C(=O)NCCCN1CCN(c2ccccc2OC)CC1` [H5C2O- / [drawing] (r7)], for the setting “Dosis 1 mg/kg”, the “BDm Δ (mittlerer peripherer Blutdruck)” value was -30 mmHg, the “LVEDP Δ” value was -2,5 mmHg and the “PAP Δ (mittlerer Pulmonalarteriendruck)” value is -1 mmHg.
Turning to `O=C(NCCO)c1nonc1C(=O)NCCO` [HOCH2CH2NH- / HOCH2CH2NH-, 1,2,5-Oxadiazol-3,4-bis-(carbonsäure-ethanolamid)], under “Dosis 1 mg/kg”, the “BDm Δ (mittlerer peripherer Blutdruck)” value is -30 mmHg, the “HF Δ (Herzfrequenz)” value was determined as 0 b/min, the “LVEDP Δ” value was -1 mmHg and the “PAP Δ (mittlerer Pulmonalarteriendruck)” value is given as -2,0 mmHg.
On to `O=C(NCc1cccnc1)c1nonc1C(=O)NCc1cccnc1` [[drawing] / [drawing] (r2)], for which, under “Dosis 3 mg/kg”, the “BDm Δ (mittlerer peripherer Blutdruck)” value was -45 mmHg, the “LVEDP Δ” value was -8,5 mmHg and the “PAP Δ (mittlerer Pulmonalarteriendruck)” value is listed as -2,4 mmHg.
Consider `O=C(NC1CCCCC1)c1nonc1C(=O)NC1CCCCC1` [[drawing] / [drawing] (r3)], for which, under “Dosis 1 mg/kg”, the “BDm Δ (mittlerer peripherer Blutdruck)” value is on record as -55 mmHg, the “HF Δ (Herzfrequenz)” value was “+15 b/min”, the “LVEDP Δ” value is reported as -10 mmHg and the “PAP Δ (mittlerer Pulmonalarteriendruck)” value is recorded as -2,7 mmHg.
